Where two headings read alike, the source gives them in different places.

The target in one data set is T1, αvβ3 integrin (Homo sapiens, UniProt P05106+P06756).
T1 construct: endogenous in cells; host or cells: M21 human melanoma cells
The experiment in a line: In vitro binding assay: displacement of 125I-echistatin on M21 human melanoma cells.

Where [1] appears, read: M21 cells, 125I-echistatin, 2 h room temperature, read-out: IC50.

T1 sequence (P06756 31-889 limits assumed): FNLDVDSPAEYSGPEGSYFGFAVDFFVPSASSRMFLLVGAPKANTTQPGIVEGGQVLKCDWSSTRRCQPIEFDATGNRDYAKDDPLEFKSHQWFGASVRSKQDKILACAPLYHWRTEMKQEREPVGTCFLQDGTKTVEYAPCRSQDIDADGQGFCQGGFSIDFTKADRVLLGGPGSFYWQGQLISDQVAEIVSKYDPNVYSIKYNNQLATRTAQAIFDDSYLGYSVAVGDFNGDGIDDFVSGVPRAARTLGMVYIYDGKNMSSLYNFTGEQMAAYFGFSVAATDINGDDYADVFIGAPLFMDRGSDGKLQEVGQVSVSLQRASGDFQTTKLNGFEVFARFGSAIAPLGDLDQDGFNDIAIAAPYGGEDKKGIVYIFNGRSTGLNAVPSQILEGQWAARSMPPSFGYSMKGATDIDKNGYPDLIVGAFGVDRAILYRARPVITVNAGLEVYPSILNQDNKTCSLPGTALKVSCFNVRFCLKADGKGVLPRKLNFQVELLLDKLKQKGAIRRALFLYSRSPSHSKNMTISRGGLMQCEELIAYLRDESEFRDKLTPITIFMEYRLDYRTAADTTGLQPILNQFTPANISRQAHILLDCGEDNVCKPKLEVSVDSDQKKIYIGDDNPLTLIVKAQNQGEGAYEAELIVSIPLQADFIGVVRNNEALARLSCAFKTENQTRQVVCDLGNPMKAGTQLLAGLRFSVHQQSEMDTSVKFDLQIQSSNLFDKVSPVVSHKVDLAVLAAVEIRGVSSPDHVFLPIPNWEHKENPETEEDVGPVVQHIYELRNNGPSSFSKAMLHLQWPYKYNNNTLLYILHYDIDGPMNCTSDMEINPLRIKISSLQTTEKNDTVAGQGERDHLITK
T1 sequence (P06756 891-1048 partner limits assumed): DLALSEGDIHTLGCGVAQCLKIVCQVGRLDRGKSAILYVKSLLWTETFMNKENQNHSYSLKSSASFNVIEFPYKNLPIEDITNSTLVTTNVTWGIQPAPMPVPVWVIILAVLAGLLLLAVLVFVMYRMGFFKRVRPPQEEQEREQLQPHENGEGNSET
T1 sequence (P05106 27-788): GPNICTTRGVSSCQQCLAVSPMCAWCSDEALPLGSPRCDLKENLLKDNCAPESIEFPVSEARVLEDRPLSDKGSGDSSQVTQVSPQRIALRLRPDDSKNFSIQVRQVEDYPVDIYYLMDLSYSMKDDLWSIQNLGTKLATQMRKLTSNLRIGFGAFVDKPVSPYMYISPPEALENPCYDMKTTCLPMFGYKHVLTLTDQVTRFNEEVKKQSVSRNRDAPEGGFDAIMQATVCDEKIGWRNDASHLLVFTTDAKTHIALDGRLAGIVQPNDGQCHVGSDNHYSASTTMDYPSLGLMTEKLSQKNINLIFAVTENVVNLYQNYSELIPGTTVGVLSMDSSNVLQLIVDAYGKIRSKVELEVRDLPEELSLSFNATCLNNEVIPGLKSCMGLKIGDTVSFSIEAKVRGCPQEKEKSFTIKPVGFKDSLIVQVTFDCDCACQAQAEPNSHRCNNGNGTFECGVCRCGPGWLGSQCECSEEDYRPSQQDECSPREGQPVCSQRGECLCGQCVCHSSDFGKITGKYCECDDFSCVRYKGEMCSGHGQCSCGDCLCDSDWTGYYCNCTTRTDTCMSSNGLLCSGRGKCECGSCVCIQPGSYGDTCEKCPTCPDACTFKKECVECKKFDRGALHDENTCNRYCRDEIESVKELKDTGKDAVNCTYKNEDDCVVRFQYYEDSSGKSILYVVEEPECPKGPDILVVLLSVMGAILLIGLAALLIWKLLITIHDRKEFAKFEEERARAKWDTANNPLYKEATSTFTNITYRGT

For the molecule 19F-galacto-RGD [reference compound], the IC50 on αvβ3 integrin (setting [1]) came to 319 nM. Besides, the “log IC50” value at αvβ3 integrin (logarithmic IC50 with logarithmic error, M21 cells, 125I-echistatin, 2 h room temperature) is −6.45 ± 0.157.

The molecule `N=C(N)NCCC[C@@H]1NC(=O)[C@H](CCCCNC(=O)CCOCCOCCOCCOCCNC(=O)CCP(=O)(O)CN2CCN(CP(=O)(O)CCC(=O)NCCOCCOCCOCCOCCC(=O)NCCCC[C@@H]3NC(=O)[C@@H](Cc4ccccc4)NC(=O)[C@H](CC(=O)O)NC(=O)CNC(=O)[C@H](CCCNC(=N)N)NC3=O)CCN(CP(=O)(O)CCC(=O)NCCOCCOCCOCCOCCC(=O)NCCCC[C@@H]3NC(=O)[C@@H](Cc4ccccc4)NC(=O)[C@H](CC(=O)O)NC(=O)CNC(=O)[C@H](CCCNC(=N)N)NC3=O)CC2)NC(=O)[C@@H](Cc2ccccc2)NC(=O)[C@H](CC(=O)O)NC(=O)CNC1=O` (single isomer, unassigned) [Ga-R3PEG4P9] came in with a lipophilicity (logP) of -3.9 ± 0.1.

Regarding `N=C(N)NCCC[C@@H]1NC(=O)[C@H](CCCCNC(=O)CCP(=O)(O)CN2CCN(CP(=O)(O)CCC(=O)O)CCN(CP(=O)(O)CCC(=O)O)CC2)NC(=O)[C@@H](Cc2ccccc2)NC(=O)[C@H](CC(=O)O)NC(=O)CNC1=O` [Compound R1P9], the half-maximal inhibitory concentration (IC50) on αvβ3 integrin (IC50 (nM)) was 2890 nM; on αvβ3 integrin (log IC50), 2950 nM.

Take `N=C(N)NCCC[C@@H]1NC(=O)[C@H](CCCCNC(=O)CCP(=O)(O)CN2CCN(CP(=O)(O)CCC(=O)O)CCN(CP(=O)(O)CCC(=O)NCCCC[C@@H]3NC(=O)[C@@H](Cc4ccccc4)NC(=O)[C@H](CC(=O)O)NC(=O)CNC(=O)[C@H](CCCNC(=N)N)NC3=O)CC2)NC(=O)[C@@H](Cc2ccccc2)NC(=O)[C@H](CC(=O)O)NC(=O)CNC1=O` [Compound R2P9]: at αvβ3 integrin (IC50 (nM)), the IC50 worked out at 370 nM.

As for `CCN=c1cc2oc3cc(NCC)c(C)cc3c(-c3ccccc3C(=O)NCCCCCCNC(=O)CCP(=O)(O)CN3CCN(CP(=O)(O)CCC(=O)NCCCCC4NC(=O)[C@@H](Cc5ccccc5)NC(=O)[C@H](CC(=O)O)NC(=O)CNC(=O)[C@H](CCCNC(=N)N)NC4=O)CCN(CP(=O)(O)CCC(=O)NCCCC[C@@H]4NC(=O)[C@@H](Cc5ccccc5)NC(=O)[C@H](CC(=O)O)NC(=O)CNC(=O)[C@H](CCCNC(=N)N)NC4=O)CC3)c-2cc1C` (some centres unmarked) [Compound R2RhoP9], the 50% inhibitory concentration (IC50) on αvβ3 integrin (IC50 (nM)) is 92 nM.

Turning to `N=C(N)NCCC[C@@H]1NC(=O)[C@H](CCCCNC(=O)CC[C@H](NC(=O)CCP(=O)(O)CN2CCN(CP(=O)(O)CCC(=O)N[C@@H](CCC(=O)NCCCC[C@@H]3NC(=O)[C@@H](Cc4ccccc4)NC(=O)[C@H](CC(=O)O)NC(=O)CNC(=O)[C@H](CCCNC(=N)N)NC3=O)C(=O)O)CCN(CP(=O)(O)CCC(=O)N[C@@H](CCC(=O)NCCCC[C@@H]3NC(=O)[C@@H](Cc4ccccc4)NC(=O)[C@H](CC(=O)O)NC(=O)CNC(=O)[C@H](CCCNC(=N)N)NC3=O)C(=O)O)CC2)C(=O)O)NC(=O)[C@@H](Cc2ccccc2)NC(=O)[C@H](CC(=O)O)NC(=O)CNC1=O` [Compound R3GlutP9], the IC50 on αvβ3 integrin (IC50 (nM)) came out at 125 nM.

At αvβ3 integrin (IC50 (nM)), `N=C(N)NCCC[C@@H]1NC(=O)[C@H](CCCCNC(=O)CCCCCNC(=O)CC[PH](=O)CN2CCN(CP(=O)(O)CCC(=O)NCCCCCC(=O)NCCCC[C@@H]3NC(=O)[C@H](Cc4ccccc4)NC(=O)[C@H](CC(=O)O)NC(=O)CNC(=O)[C@H](CCCNC(=N)N)NC3=O)CCN(CP(=O)(O)CCC(=O)NCCCCCC(=O)NCCCC[C@@H]3NC(=O)[C@H](Cc4ccccc4)NC(=O)[C@H](CC(=O)O)NC(=O)CNC(=O)[C@H](CCCNC(=N)N)NC3=O)CC2)NC(=O)[C@H](Cc2ccccc2)NC(=O)[C@H](CC(=O)O)NC(=O)CNC1=O` (some centres unmarked) [Compound R3HexP9] registered a half-maximal inhibitory concentration (IC50) of 85 nM.

`N=C(N)NCCC[C@@H]1NC(=O)[C@H](CCCCNC(=O)CCOCCOCCOCCOCCOCCOCCOCCOCCNC(=O)CCP(=O)(O)CN2CCN(CP(=O)(O)CCC(=O)NCCOCCOCCOCCOCCOCCOCCOCCOCCC(=O)NCCCC[C@@H]3NC(=O)[C@@H](Cc4ccccc4)NC(=O)[C@H](CC(=O)O)NC(=O)CNC(=O)[C@H](CCCNC(=N)N)NC3=O)CCN(CP(=O)(O)CCC(=O)NCCOCCOCCOCCOCCOCCOCCOCCOCCC(=O)NCCCC[C@@H]3NC(=O)[C@@H](Cc4ccccc4)NC(=O)[C@H](CC(=O)O)NC(=O)CNC(=O)[C@H](CCCNC(=N)N)NC3=O)CC2)NC(=O)[C@@H](Cc2ccccc2)NC(=O)[C@H](CC(=O)O)NC(=O)CNC1=O` [Compound R3PEG8P9]: the IC50 at αvβ3 integrin (setting [1]) worked out at 50 nM.

`N=C(N)NCCC[C@@H]1NC(=O)[C@H](CCCCNC(=O)CCP(=O)(O)CN2CCN(CP(=O)(O)CCC(=O)O)CCN(CP(=O)(O)CCC(=O)O)CC2)NC(=O)[C@@H](Cc2ccccc2)NC(=O)[C@H](CC(=O)O)NC(=O)CNC1=O` [Ga-R1P9] yielded a lipophilicity (logP) of -3.91 ± 0.11.

In turn, `N=C(N)NCCC[C@@H]1NC(=O)[C@H](CCCCNC(=O)CCP(=O)(O)CN2CCN(CP(=O)(O)CCC(=O)O)CCN(CP(=O)(O)CCC(=O)NCCCC[C@@H]3NC(=O)[C@@H](Cc4ccccc4)NC(=O)[C@H](CC(=O)O)NC(=O)CNC(=O)[C@H](CCCNC(=N)N)NC3=O)CC2)NC(=O)[C@@H](Cc2ccccc2)NC(=O)[C@H](CC(=O)O)NC(=O)CNC1=O` [Ga-R2P9] had a logP of -4.12 ± 0.06.

Regarding `CCN=c1cc2oc3cc(NCC)c(C)cc3c(-c3ccccc3C(=O)NCCCCCCNC(=O)CCP(=O)(O)CN3CCN(CP(=O)(O)CCC(=O)NCCCC[C@@H]4NC(=O)[C@@H](Cc5ccccc5)NC(=O)[C@H](CC(=O)O)NC(=O)CNC(=O)[C@H](CCCNC(=N)N)NC4=O)CCN(CP(=O)(O)CCC(=O)NCCCC[C@@H]4NC(=O)[C@@H](Cc5ccccc5)NC(=O)[C@H](CC(=O)O)NC(=O)CNC(=O)[C@H](CCCNC(=N)N)NC4=O)CC3)c-2cc1C` [Ga-R2RhoP9], the logP is -1.27 ± 0.04.

Turning to `N=C(N)NCCC[C@@H]1NC(=O)[C@H](CCCCNC(=O)CC[C@H](NC(=O)CCP(=O)(O)CN2CCN(CP(=O)(O)CCC(=O)N[C@@H](CCC(=O)NCCCC[C@@H]3NC(=O)[C@@H](Cc4ccccc4)NC(=O)[C@H](CC(=O)O)NC(=O)CNC(=O)[C@H](CCCNC(=N)N)NC3=O)C(=O)O)CCN(CP(=O)(O)CCC(=O)N[C@@H](CCC(=O)NCCCC[C@@H]3NC(=O)[C@@H](Cc4ccccc4)NC(=O)[C@H](CC(=O)O)NC(=O)CNC(=O)[C@H](CCCNC(=N)N)NC3=O)C(=O)O)CC2)C(=O)O)NC(=O)[C@@H](Cc2ccccc2)NC(=O)[C@H](CC(=O)O)NC(=O)CNC1=O` [Ga-R3GlutP9], the lipophilicity (logP) was -4.03 ± 0.12.

Take `N=C(N)NCCC[C@@H]1NC(=O)[C@H](CCCCNC(=O)CCCCCNC(=O)CCP(=O)(O)CN2CCN(CP(=O)(O)CCC(=O)NCCCCCC(=O)NCCCC[C@@H]3NC(=O)[C@@H](Cc4ccccc4)NC(=O)[C@H](CC(=O)O)NC(=O)CNC(=O)[C@H](CCCNC(=N)N)NC3=O)CCN(CP(=O)(O)CCC(=O)NCCCCCC(=O)NCCCC[C@@H]3NC(=O)[C@@H](Cc4ccccc4)NC(=O)[C@H](CC(=O)O)NC(=O)CNC(=O)[C@H](CCCNC(=N)N)NC3=O)CC2)NC(=O)[C@@H](Cc2ccccc2)NC(=O)[C@H](CC(=O)O)NC(=O)CNC1=O` [Ga-R3HexP9]: the log partition coefficient (logP) was -3.99 ± 0.13.

Consider Echistatin [reference compound], for which, on αvβ3 integrin, the “log IC50” value was −9.01 ± 0.033. Further, the IC50 on αvβ3 integrin (read-out: IC50) was 0.98 nM.

For orientation: IC50 means the point on the concentration scale where inhibition reaches its midpoint. A word on the logP: it is a log measure of how a compound divides between an organic and an aqueous phase. Higher therefore signals higher lipophilicity.

The values are drawn from patent US9260483B2, “Triazacyclononane-based phosphinate ligand and its use for molecular imaging” (TECHNISCHE UNIVERSITÄT MÜNCHEN, priority 2011, dated 2016).
